Measured values from EP2439197A1, “Substituted benzimidazole derivatives as melanocortin 4 receptor antagonists” (Santhera Pharmaceuticals (Schweiz) AG, priority 2010, dated 2012).
Read-outs that look alike come from different tables or passages of the source.

How the values were obtained:
hMC-4R [1] = molecular target: T1, hMC-4R (Homo sapiens, UniProt P32245); assay: functional assay, homogeneous membrane based cAMP fluorescence polarization assay; assay type: biochemical; details: for Emax: read-out: % activation functional assay
T1 construct: expressed in transfected cells; host or cells: HEK293 cells (membrane preparations)

hMC-4R [2] = molecular target: T1, hMC-4R; assay: membrane binding assay, competition with fluorescence labeled NDP-alpha-MSH (fluorescence polarization)
Protocol: A membrane binding assay is used to identify competitive inhibitors of fluorescence labeled NDP-alpha-MSH binding to HEK293 cell membrane preparations expressing human melanocortin receptors.
The test compound or unlabeled NDP-alpha-MSH is dispensed at varying concentrations to a 384 well microtiter plate. Fluorescence labeled NDP-alpha-MSH is dispensed at a single concentration, followed by addition of membrane preparations. The plate is incubated for 5 h at room temperature.
The degree of fluorescence polarization is determined with a fluorescence polarization microplate reader.

[3] = HEK293 cell membrane preparations expressing human melanocortin receptors, read-out: hMC-4R binding assay IC50/µM

T1 sequence (P32245 whole entry): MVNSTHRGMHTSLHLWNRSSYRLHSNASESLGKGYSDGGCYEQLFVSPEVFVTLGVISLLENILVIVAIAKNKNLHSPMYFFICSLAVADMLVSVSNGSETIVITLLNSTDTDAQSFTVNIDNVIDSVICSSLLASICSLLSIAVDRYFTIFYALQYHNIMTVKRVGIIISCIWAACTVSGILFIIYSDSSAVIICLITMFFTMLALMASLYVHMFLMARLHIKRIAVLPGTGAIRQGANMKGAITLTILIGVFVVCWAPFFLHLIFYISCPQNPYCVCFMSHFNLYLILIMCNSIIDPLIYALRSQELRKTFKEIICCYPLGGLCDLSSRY

| Compound | Emax (hMC-4R [1]) [%] | IC50 (hMC-4R [2]) [µM] | EC50 (hMC-4R [1]; membrane preparations from HEK293 cells, cAMP production, read-out: hMC-4R functional assay EC50/µM) [µM] | IC50 (hMC-4R [2]; [3]) [µM] | EC50 (hMC-4R [1]) [µM] |
| --- | --- | --- | --- | --- | --- |
| CC(C)CCN(CCC(C)C)C(=O)c1ccc2nc(-c3ccc(=O)[nH]c3)n(CC(O)CN3CCCC3)c2c1 (stereo not shown) [Example 1] | -15 | < 1 |  |  |  |
| CC(C)CCN(CCC(C)C)C(=O)c1ccc2nc(-c3ccc(=O)[nH]c3)n(CC(F)CN3CCCC3)c2c1 (stereo not shown) [Example 2] | -11 | < 0.1 |  |  |  |
| COc1ccc(-c2nc3ccc(C(=O)N(CCC(C)C)CCC(C)C)cc3n2CC(O)CN2CCCC2)cn1 (stereo not shown) [Example 3] | -25 |  | 0.1 to 1 | < 0.1 |  |
| CC(C)CCN(CCC(C)C)C(=O)c1ccc2nc(-c3ncco3)n(CC(O)CN3CCCC3)c2c1 (stereo not shown) [Example 4] | -28 | < 0.1 |  |  | < 0.1 |
| COc1cc(C2(c3nc4ccc(C(=O)N(CCC(C)C)CCC(C)C)cc4n3CCCN3CCCC3)CC2)ccn1 [Example 5] | -6 | < 1 |  |  |  |
| COc1ccc(C2(c3nc4ccc(C(=O)N(CCC(C)C)CCC(C)C)cc4n3CCCN3CCCC3)CC2)cn1 [Example 6] | -11 | < 1 |  |  |  |
| CC(C)CCN(CCC(C)C)C(=O)c1ccc2nc(N3CCN(C)CC3)n(CCCN3CCCC3)c2c1 [Example 7] | -4 | 1 to 10 |  |  |  |
| CC(C)CCN(CCC(C)C)C(=O)c1ccc2nc(CN3CCN(C)CC3)n(CCCN3CCCC3)c2c1 [Example 8] | -6 |  |  | < 0.1 |  |
| CC(C)CCN(CCC(C)C)C(=O)c1ccc2nc(CN3CCN(CCO)CC3)n(CCCN3CCCC3)c2c1 [Example 9] | -9 | < 0.1 |  |  |  |
| CC(C)CCN(CCC(C)C)C(=O)c1ccc2nc(CN3CCN(C(C)C)CC3)n(CCCN3CCCC3)c2c1 [Example 10] | 0 | < 1 |  |  |  |
| CC(C)CCN(CCC(C)C)C(=O)c1ccc2nc(C3CCN(C(=O)OC(C)(C)C)CC3)n(CCCN3CCCC3)c2c1 [Example 11] | -33 | < 0.1 |  |  | < 0.1 |
| CC(C)CCN(CCC(C)C)C(=O)c1ccc2nc(C3CCN(C(=O)OC(C)(C)C)CC3)n(CCCN3CCCC3C)c2c1 (stereo not shown) [Example 12] | -40 | < 0.1 |  |  | < 0.1 |
| CC(C)CCN(CCC(C)C)C(=O)c1ccc2nc(CC3CCN(C(=O)OC(C)(C)C)CC3)n(CCCN3CCCC3)c2c1 [Example 13] | -7 | < 0.1 |  |  |  |
| CC(C)CCN(CCC(C)C)C(=O)c1ccc2nc(CC3CCN(CCO)CC3)n(CCCN3CCCC3)c2c1 [Example 14] | -18 | < 0.1 |  |  |  |
| CC(C)CCN(CCC(C)C)C(=O)c1ccc2nc(CC3CCN(C4COC4)CC3)n(CCCN3CCCC3)c2c1 [Example 15] | -11 | < 0.1 |  |  |  |
| CC(C)CCN(CCC(C)C)C(=O)c1ccc2nc(C3CN(C(=O)OC(C)(C)C)C3)n(CCCN3CCCC3)c2c1 [Example 16] | -9 |  |  | < 0.1 |  |
| CC(C)CCN(CCC(C)C)C(=O)c1ccc2nc([C@H]3CC[C@H](N(C)C)CC3)n(CCCN3CCCC3)c2c1 [Example 17] | -6 | < 0.1 |  |  |  |
| CC(C)CCN(CCC(C)C)C(=O)c1ccc2nc([C@H]3CC[C@@H](N(C)C)CC3)n(CCCN3CCCC3)c2c1 [Example 18] | -19 | < 0.1 |  |  |  |
| CCCCN(CCCC)C(=O)c1ccc2nc(CC3CCN(C(=O)OC(C)(C)C)CC3)n(CCCN3CCCC3)c2c1 [Example 19] | -33 | < 0.1 |  |  | < 0.1 |
| CCCCN(CCCC)C(=O)c1ccc2nc(CC3CCN(C4COC4)CC3)n(CCCN3CCCC3)c2c1 [Example 20] | 0 | < 1 |  |  |  |

| Compound | Emax (hMC-4R [1]) [%] | IC50 (hMC-4R [2]) [µM] | EC50 (hMC-4R [1]; membrane preparations from HEK293 cells, cAMP production, read-out: hMC-4R functional assay EC50/µM) [µM] | IC50 (hMC-4R [2]; [3]) [µM] | EC50 (hMC-4R [1]) [µM] |
| --- | --- | --- | --- | --- | --- |
| CC(C)CCN(CCC(C)C)C(=O)c1ccc2nc(-c3ccc(=O)[nH]c3)n(CCCN3CCCC3)c2c1 [Example 21] | -14 | < 0.1 |  |  |  |
| CC(C)CCN(CCC(C)C)C(=O)c1ccc2nc(-c3ccc(=O)[nH]c3)n(CCCN3CCCCC3)c2c1 [Example 22] | -12 |  |  | < 0.1 |  |
| CC(C)CCN(CCC(C)C)C(=O)c1ccc2nc(C3CCNCC3)n(CCCN3CCCC3)c2c1 [Example 23] | -39 | < 0.1 |  |  | < 0.1 |
| CC(C)CCN(CCC(C)C)C(=O)c1ccc2nc(C3CCN(C)CC3)n(CCCN3CCCC3)c2c1 [Example 24] | -44 | < 0.1 |  |  | < 0.1 |
| CC(C)CCN(CCC(C)C)C(=O)c1ccc2nc(-c3ccc(=O)[nH]c3)n(CCCN3CCCC3C)c2c1 (stereo not shown) [Example 25] | -37 | < 0.1 |  |  | < 0.1 |
| CC(C)CCN(CCC(C)C)C(=O)c1ccc2nc(C3CCNCC3)n(CCCN3CCCC3C)c2c1 (stereo not shown) [Example 26] | -12 | < 0.1 |  |  |  |
| CC(C)CCN(CCC(C)C)C(=O)c1ccc2nc(C3CCN(C)CC3)n(CCCN3CCCC3C)c2c1 (stereo not shown) [Example 27] | -2 |  |  | < 0.1 |  |
| CC(C)CCN(CCC(C)C)C(=O)c1ccc2nc(CC3CCNCC3)n(CCCN3CCCC3)c2c1 [Example 28] | -6 |  |  | < 0.1 |  |
| CC(C)CCN(CCC(C)C)C(=O)c1ccc2nc(CC3CCN(C)CC3)n(CCCN3CCCC3)c2c1 [Example 29] | -10 | < 0.1 |  |  |  |
| CC(C)CCN(CCC(C)C)C(=O)c1ccc2nc(-c3cnc(O)nc3)n(CCCN3CCCC3)c2c1 [Example 30] | -12 | < 1 |  |  |  |
| CC(C)CCN(CCC(C)C)C(=O)c1ccc2nc(C3CNC3)n(CCCN3CCCC3)c2c1 [Example 31] | -32 | < 0.1 |  |  | 0.1 to 1 |
| CC(C)CCN(CCC(C)C)C(=O)c1ccc2nc(C3CN(C)C3)n(CCCN3CCCC3)c2c1 [Example 32] | -18 | < 0.1 |  |  | < 0.1 |
| COc1cc(Cc2nc3ccc(C(=O)N(CCC(C)C)CCC(C)C)cc3n2CCCN2CCCC2)ccn1 [Example 33] | 0 | < 0.1 |  |  |  |
| CC(C)CCN(CCC(C)C)C(=O)c1ccc2nc(C3CNC(=O)C3)n(CCCN3CCCC3)c2c1 (stereo not shown) [Example 34] | -10 | < 0.1 |  |  |  |
| CC(C)CCN(CCC(C)C)C(=O)c1ccc2nc(C3CCC(=O)NC3)n(CCCN3CCCC3)c2c1 (stereo not shown) [Example 35] | -11 | < 1 |  |  |  |
| CC(C)CCN(CCC(C)C)C(=O)c1ccc2nc(C3CCN(C)C(=O)C3)n(CCCN3CCCC3)c2c1 (stereo not shown) [Example 36] | -5 | < 1 |  |  |  |
| CC(C)CCN(CCC(C)C)C(=O)c1ccc2nc(C3CCC(=O)N(C)C3)n(CCCN3CCCC3)c2c1 (stereo not shown) [Example 37] | -2 | < 1 |  |  |  |
| CCCCN(CCCC)C(=O)c1ccc2nc(CC3CCNCC3)n(CCCN3CCCC3)c2c1 [Example 38] | -5 | < 0.1 |  |  |  |
| CCCCN(CCCC)C(=O)c1ccc2nc(CC3CCN(C)CC3)n(CCCN3CCCC3)c2c1 [Example 39] | -8 | < 0.1 |  |  |  |
